One data set relates to mouth mucosa cells. Nature of the data set: Uptake of drug / WR-1065 into mouth mucosa cells after oral rinse. Format: in vivo, human. On the procedure: Specifically, 125 mg of amifostine is provided as an oral rinse. The patient rinses for approximately one minute and thereafter, expels/discards the rinse. The rinse process can be repeated.
The next data set relates to mucositis. Nature of the data set: Amifostine oral rinse in a patient subject to chemotherapy (prevention/treatment of mucositis). The note with it: for safety of administration: 200 mg WR-2721 (10 ml 0.09 M) or 125 mg WR-1065 (10 ml 0.09 M). In kind it is in vivo, human. The procedure: In this example, a patient is subject to chemotherapy as part of a treatment plan for head and neck cancer. The patient presents multiple squamous cell carcinoma tumors in the throat and larynx. The patient is administered amifostine for use after each chemotherapy session (e.g., for oral rinse within 15 minutes to two hours after chemotherapy).
The amifostine is administered to the patient in the formulation described above (Table 2). […] The patient rinses for approximately one minute and thereafter, expels/discards the rinse. The rinse process can be repeated.

For data set [1] the following is noted: after amifostine injection; animal study; cited from earlier work.
The subject of data set [2] is epirubicin-induced oral mucositis. The conditions noted are these: patients with epirubicin-induced oral mucositis; cited from earlier work.
The conditions of data set [3]: following intravenous administration; cited from earlier work.
The conditions of data set [4]: cited from earlier work.

For the compound `NCCCNCCS` [WR-1065], in the data set with mouth mucosa cells, the “WR-1065 concentration in washed, isolated, vital mouth mucosa cells” value is given as 3.7-19.9 ng/10^5 cells. Further, the safety of administration entry in the data set on mucositis is “can be safely administered”. Also, in the data set on mucositis (oral rinse), the systemic side-effects entry is given as “no systemic side-effects are observed” and the tolerability result is “well-tolerated”. In data set [1], the “time of maximum tissue concentrations of WR-1065” value was “five to fifteen”.
On to `NCCCNCCSP(=O)(O)O` [amifostine, S-2-(3-aminopropylamino) ethyl dihydrogen phosphorothioate], for which the “difference between patients given amifostine oral rinse and control” value in data set [2] is “no significant difference”. For the same compound, the safety of administration entry in the data set on mucositis is given as “can be safely administered”. In addition, in data set [3], the “clearance from the plasma” value is “rapidly cleared”. In data set [4] (hydrolysis of amifostine to WR-1065 and inorganic phosphate), the “pH of maximal rate of hydrolysis” value is 3.0. Moreover, the “hydrolysis at neutral pH” value in data set [4] (over four hours at room temperature) is listed as “no detectable hydrolysis”. In addition, in data set [4] (pH from 1 to 3), the “stability at gastric pH” value is recorded as “unstable”.

The values above are taken from patent US20240398709A1, “DRY POWDER FOAMABLE FORMULATIONS FOR DELIVERY OF MEDICAMENTS THROUGH THE MUCOSA” (priority 2021, published 2024).
